Data set [1] has as its system thrombosis-induced neointimal hyperplasia in mouse femoral artery. Put plainly: Inhibition test on neointimal hyperplasia (thrombosis-induced model). In kind it is in vivo. To be noted: oral, once a day for 3 weeks; dose reducing the neointimal area of the non-treated group by 50 %. Here is the method: The effect of compounds in vivo was evaluated by using a model of thrombosis-induced neointimal hyperplasia in mouse femoral artery. Each compound was suspended in 0.5 % carboxymethylcellulose sodium solution and administered orally to mice once a day for 3 weeks. After final administration, the femoral artery was fixed and removed. Cross sections of vessels were made consecutively and the neointimal area induced and formed by thrombosis was measured. Inhibitory activity on neointimal hyperplasia of each compound was shown as a dose which reduced the area of the non-treated group by 50 % (ID50).

The subject of data set [2] is Spontaneous hypertensive rat-derived vascular smooth muscle cells (VSMCs) in thoracic aorta. Put plainly: Inhibition test on vascular smooth muscle cells proliferation (3H-thymidine incorporation). It is filed as cell-based. Conditions: Rattus norvegicus, VSMC. Here is the method:
Thus, the compounds of the present invention have a very potent inhibitory effect on vascular smooth muscle cells proliferation.
Spontaneous hypertensive rat-derived vascular smooth muscle cells (VSMCs) in thoracic aorta were isolated by explant technique. The VSMCs were placed into 96 wells at 5000 cells/well and incubated in DMEM containing 10 % fetal calf serum at 37 °C in 95 % air and 5 % carbon dioxide for 3 days. After the incubation, the medium was replaced with DMEM containing each compound and ^3H-thymidine, and then the VSMCs were incubated. 24 hours later, the incorporation of ^3H-thymidine into DNA was determined and the radioactivity was defined as proliferation inhibitory activity of VSMCs. The activity of each compound was shown as a concentration which reduced the radioactivity of non-treated group by 50 % (IC50).
Background: Uptake of a labelled nucleoside into DNA is a usual measure of proliferation.

The next data set in a line: Acute toxicity test. In kind it is in vivo. Conditions: single oral administration, dose of 2000mg/kg; for death (dead mice): 2000 mg/kg. As for the experimental part: The compounds represented by the general formula (I) of the present invention have an LD50 value extremely preferable to that of Tranilast and therefore are very safer compounds.
Male ICR nice were fasted for 4 hours. 2-(3,4-Dimethoxycinnamoylamino)benzamide was suspended in 0.5 % carboxymethylcellulose sodium and administered orally at doses of 300, 1000 and 2000mg/kg, respectively. Dead mice and abnormal behavior were not observed even in the group administered at a dose of 2000mg/kg.

Data set [3] relates to restenosis after PTCA surgery. Conditions: patients after PTCA surgery; incidence without the drug about 30-40%; cited from earlier work.
Setting [4] is: 3H-thymidine incorporation into DNA, 24 hours incubation with compound, read-out: Concentration of 50% inhibitory activity (IC50).

Like-named read-outs stand apart in the source and are kept apart here.

With `CCOc1ccc(/C=C/C(=O)Nc2ccccc2C(N)=O)cc1OC` [Compound 17, (E)-2-(4-Ethoxy-3-methoxycinnamoylamino)benzamide], the “Dose of 50% inhibitory activity (ID50)” value in data set [1] was found to be 1 mg/kg. Also, in data set [2] (setting [4]), the IC50 is 5 µM.

With `COc1ccc(/C=C/C(=O)Nc2ccccc2C(N)=O)cc1OC` [Compound 4, (E)-2-(3,4-Dimethoxycinnamoylamino)benzamide], the “Dose of 50% inhibitory activity (ID50)” value in data set [1] stood at 1 mg/kg. Besides, the IC50 in data set [2] (setting [4]) was determined as 27 µM. The abnormal behavior entry in the data set “Acute toxicity test” (mice) is “not observed”. The “death (dead mice)” value in “Acute toxicity test” (listed as 2-(3,4-Dimethoxycinnamoylamino)benzamide) is “not observed”; in the data set “Acute toxicity test” (listed as 2-(3,4-dimethoxycinnamoylamino)benzamide), “no death was observed”.

For `CCOC(=O)c1ccccc1/C=C/C(=O)Nc1ccccc1C(N)=O` [Compound 3, (E)-2-(2-Ethoxycarbonylcinnamoylamino)benzamide], in data set [2] (setting [4]), the IC50 was 46 µM.

For `CN(C)c1ccc(/C=C/C(=O)Nc2ccccc2C(N)=O)cc1` [Compound 55, (E)-2-(4-Dimethylaminocinnamoylamino)benzamide], in data set [2] (setting [4]), the IC50 was 65 µM.

For the compound `NC(=O)c1ccccc1NC(=O)/C=C/c1ccc2c(c1)OCO2` [Compound 30, (E)-2-(3,4-Methylenedioxycinnamoylamino)benzamide], in data set [2] (setting [4]), the IC50 is 9 µM.

Consider `COc1ccc(/C=C/C(=O)Nc2ccccc2C(N)=O)c(OC)c1` [Compound 12, (E)-2-(2,4-Dimethoxycinnamoylamino)benzamide], for which the IC50 in data set [2] (setting [4]) was 3 µM.

With `CCOc1ccc(/C=C/C(=O)Nc2ccccc2C(=O)NCCOCCO)cc1OC` [Compound 44, (E)-2-(4-Ethoxy-3-methoxycinnamoylamino)-N-[2-(2-hydroxyethoxy)ethyl]benzamide], in data set [2] (setting [4]), the IC50 was determined as 58 µM.

With `CNC(=O)c1ccccc1NC(=O)/C=C/c1ccc(OC)c(OC)c1` [Compound 58, (E)-2-(3,4-Dimethoxycinnamoylamino)-N-methylbenzamide], in data set [2] (setting [4]), the IC50 worked out at 15 µM.

For `NC(=O)c1ccccc1NC(=O)/C=C/c1cccc(Cl)c1` [Compound 22, (E)-2-(3-Chlorocinnamoylamino)benzamide], in data set [2] (setting [4]), the IC50 worked out at 30 µM.

On to `COc1ccc(C=CC(=O)Nc2ccccc2C(=O)O)cc1OC` [Tranilast, 2-(3,4-dimethoxycinnamoylamino)benzoic acid, reference compound], for which the “Dose of 50% inhibitory activity (ID50)” value in data set [1] is 100 mg/kg. The IC50 in data set [2] (in vitro, read-out: concentration exhibiting a 50% inhibitory activity on vascular smooth muscle cells proliferation) was 231 µM. Also, the “restenosis observed when administering after PTCA surgery” value in data set [3] was 10-15%.

On to `CCCCOc1cccc(/C=C/C(=O)Nc2ccccc2C(N)=O)c1` [Compound 7, (E)-2-(3-Butoxycinnamoylamino)benzamide], for which the IC50 in data set [2] (setting [4]) turned out to be 86 µM.
